Measured values taken from publication PMC12683216, “Using High‐Throughput Screening to Identify Crosslinking Peptides That Control Cell‐Mediated Matrix Degradation” (Advanced Healthcare Materials, 2025).
Values belong to the compound of their own block, whether it stands above or below them. Where a SMILES comes first, the peptide text is derived from it. [ ]: non-standard residue; d: D form. βAla = NCCC(=O)O

How the values were obtained:
[1] = Soluble peptide degradation, Cells condition (LC-MS); format: in vitro ADME, human; conditions: human, 24 h, LC-MS; for remaining at 24 h: Figure 2B heatmap, ratio to βFβA6 internal standard, 24 h / 0 h, N = 5; for remaining at 24 h, 50 µM: Figure 3C, individually synthesized soluble peptide, ratio to βFβA6, N = 6
In short: (§1)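 Pooled synthetic TAILS-derived peptides added to hUVEC or hMSC cultures (Cells) or cell-free conditioned media (Media); MMP-14 inhibitor NSC 405 020 at 10 µM final. Samples taken at 0 and 24 h, acidified, analysed by LC-MS; peak areas normalised to 50 µM βFβA6 internal standard, 24 h/0 h gives fraction remaining.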

[2] = tested on: MMP-14; assay: as above; format: in vitro ADME, human; conditions: human, with NSC 405 020 (MMP-14 inhibitor), Figure 3C, 50 µM peptide, 24 h, LC-MS, N = 6
In short: as §1

[3] = tested on: hMSCs; assay: as above; format: in vitro ADME, human; conditions: for peptide remaining after 24 h, Cells condition, hMSCs: 50 µM soluble peptide
In short: as §1

[4] = tested on: hUVECs; assay: as above; format: in vitro ADME, human; conditions: 24 h, LC-MS; for Fraction of peptide remaining after 24 hours: hUVEC Cells: ratio to βFβA6
In short: as §1

[5] = Soluble peptide degradation, Media condition (cell-conditioned media, LC-MS); format: in vitro ADME, human; conditions: 24 h, LC-MS; for remaining at 24 h, 50 µM / remaining at 24 h: human; for remaining at 24 h: Figure 2B heatmap, pooled TAILS-derived soluble peptides in 24 h hUVEC-conditioned media without cells, ratio to βFβA6 internal standard, 24 h / 0 h, N = 5, read-out: Fraction of peptide remaining at 24 hours: hUVEC Media
In short: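 Pooled peptide library added to medium conditioned by hUVECs or hMSCs with cells removed. Fraction remaining after 24 h measured by LC-MS (positive-ion ESI). Value is peptide peak area relative to 50 µM non-degradable βFβA6 internal standard.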

[6] = tested on: T1, MMP-14; assay: Peptide degradation with added exogenous recombinant MMP-14 (LC-MS); format: in vitro ADME; conditions: human, Figure 7 study, recombinant MMP-14 0.5 nM, 24 h, LC-MS, N = 3 with technical triplicates
T1 construct: purchased antibodies.com
Procedure: To verify that MMP‐14 can degrade the KLVAD‐LM and PanMMP peptides, recombinant MMP‐14 was added to the different peptides, both in PBS and in the Cell and Media culture conditions (Figure 7 ). Peptides were incubated under three conditions: in fresh cell culture media (“Blank”), in media with cells present (“Cells”), and in cell‐conditioned media (“Media”). This was done for both hMSCs and hUVECs, and was also done with and without the addition of exogenous MMP.
The extent of peptide degradation was quantified for samples both with and without the addition of exogenous MMP‐14. […] Error bars indicate ± standard deviation, N = 3 with technical triplicates.
hUVECs (75000 per well) or hMSCs (36000 per well) were seeded into a 48 well plate, and 500 µL media was added to the wells. […] The peptide libraries were dissolved at a stock solution of 10 mM total peptide content. For libraries containing 38 peptides, 95 µL of the stock solution was added to each well; for libraries with 19 peptides, 47.5 µL was added to each well, and media was taken at 0 and 24 h. Add 4 µL of acetic acid to all collected media in the LC‐MS plates and store them in a −80 °C freezer to prevent further proteolytic degradation. From each sample, 10 µL of crude solution was introduced by the LC‐MS through a Thermo Scientific Vanquish LC System (Thermo Fisher Scientific), which outputted to a Thermo Scientific LTQ XL Linear Ion Trap Mass Spectrometer (Thermo Fisher Scientific). The sampled mixture was trapped on a column (ProntoSIL C18 AQ, 120 Å, 3 µm, 2.0 x 50 mm HPLC Column, PN 0502F184PS030, MAC‐MOD Analytical Inc.). The samples were loaded onto the column with a solvent containing acetonitrile/water, 5:95 (v/v) containing 1% acetic acid at a flow rate of 300 µL min^−1 and held for 1 min. The sample was then eluted from the column with a linear gradient of 5–40% Solvent B (1% acetic acid in acetonitrile) at the same flow rate for 5 min. This was followed by a 1 min ramp up to 100% Solvent B, where it was re‐equilibrated with Solvent A (1% acetic acid) to 5% solvent B over the course of 1 min and held there for 2 min. The column temperature was kept at a constant 29 °C, and the mass spectrometer was operated in positive ion mode. Using a Heated ESI, the Source Voltage was set to 4.1 kV, and the capillary temperature was 350 °C. For non‐library degradation studies, 2.5 µL of 10 mM peptide stock solution for each peptide was added.
To assess the activity of the conditioned media, the media were divided into two equal portions. One portion was used for a standard degradation study, while the other was cultured for an additional 24 h before the PanMMP and KLVADLMASAE were added. After 24 h of incubation, the media were collected for further analysis. To assess the impact of recombinant MMP‐14 on PanMMP and KLVADLMASAE, recombinant MMP‐14 (antibodies.com) was dissolved in the media at a concentration of 0.5 nM. The remaining steps followed the standard degradation study protocol.
For all degradation studies using soluble peptides, a non‐proteolytically degradable NH2‐βFβAβAβAβAβAβA‐amide (βFβA6) peptide, where βF is β‐phenylalanine and βA is β‐alanine, was added at a 50 µM concentration and used as an internal standard. Peptide degradation ratios were measured by LC‐MS and analyzed by Xcalibur. The relative concentrations of the peptide were calculated by the ratio of the peak area of the peptide and the peak area of βFβA6.

[7] = hMSCs in culture with fresh media (Cells condition), pooled TAILS-derived soluble peptides (Ac-βAla N-terminus, βAla-amide C-terminus) in media on hMSCs (36000 per well, 48 well plate, 500 µL), read-out: Fraction of peptide remaining at 24 hours: hMSC Cells
[8] = hUVECs in culture with fresh media (Cells condition), pooled TAILS-derived soluble peptides in media on hUVECs (75000 per well, 48 well plate, 500 µL), read-out: Fraction of peptide remaining at 24 hours: hUVEC Cells
[9] = media on hUVECs with MMP-14 inhibitor NSC 405 020 10 µM, read-out: Fraction of peptide remaining after 24 hours: hUVEC +Inhibitor

remaining at 24 h [1, 7]: 39% | metabolised at 24 h ([1]; hMSCs in culture with fresh media (Cells condition), Figure 2B screen, hMSCs, read-out: amount of degradation in the Cells condition): 61% | remaining at 24 h [1, 8]: 69% | remaining at 24 h, 50 µM [2, 9]: 95% | peptide remaining, Cells + MMP-14 inhibitor, hMSCs ([3]; 24 h, 50 µM): 78% | Fraction of peptide remaining after 24 hours: hMSC +Inhibitor ([3]; Figure 3C, 50 µM peptide, media on hMSCs with MMP-14 inhibitor NSC 405 020 10 µM, 24 h, LC-MS, N = 6): 0.78 | peptide remaining after 24 h, Cells condition, hMSCs ([3]; Figure 3C, LC-MS, N = 6): 35% | Fraction of peptide remaining after 24 hours: hMSC Cells ([3]; Figure 3C, individually synthesized soluble peptide, 50 µM, media on hMSCs, 24 h, LC-MS, ratio to βFβA6, N = 6): 0.35 | Fraction of peptide remaining after 24 hours: hUVEC Cells ([4]; Figure 3C, individually synthesized soluble peptide, 50 µM, media on hUVECs, N = 6): 0.77 | degradation after 24 h, Cells + Inhibitor, cultured with hUVECs ([4]; NSC 405 020 10 µM): greater than 2% | peptide remaining, Media condition, hUVECs ([5]; Figure 3C, 50 µM soluble peptide, N = 6): 89% | Fraction of peptide remaining after 24 hours: hUVEC Media ([5]; Figure 3C, individually synthesized soluble peptide, 50 µM, hUVEC-conditioned media without cells, ratio to βFβA6, N = 6): 0.89 | remaining at 24 h, 50 µM ([5]; hUVEC-conditioned media without cells, no exogenous MMP-14, Figure 7 study, N = 3 with technical triplicates, read-out: peptide remaining in hUVEC conditioned media without exogenous MMP-14): 78% | remaining at 24 h [5]: 93% | remaining at 24 h, 50 µM ([6]; read-out: peptide remaining in hMSC conditioned media with added MMP‐14): 84% | remaining at 24 h, 50 µM ([6]; read-out: peptide remaining in hUVEC conditioned media with added MMP‐14): 72%
SMILES: CC[C@H](C)[C@H](NC(=O)CNC(=O)[C@H](CCC(N)=O)NC(=O)[C@@H]1CCCN1C(=O)CNC(=O)CCNC(C)=O)C(=O)N[C@@H](Cc1c[nH]c2ccccc12)C(=O)NCC(=O)N[C@@H](CCC(N)=O)C(=O)NCCC(N)=O [PanMMP, reference compound] (Ac-[βAla]GPQGIWGQ[βAla]-NH2)

remaining at 24 h [1, 7]: 70% | remaining at 24 h, 50 µM ([1]; hMSCs in culture with fresh media (Cells condition), media on hMSCs, read-out: Fraction of peptide remaining after 24 hours: hMSC Cells): 78% | remaining at 24 h [1, 8]: 92% | remaining at 24 h, 50 µM ([1]; hUVECs in culture with fresh media (Cells condition), media on hUVECs, read-out: Fraction of peptide remaining after 24 hours: hUVEC Cells): 96% | remaining at 24 h, 50 µM ([2]; media on hMSCs with MMP-14 inhibitor NSC 405 020 10 µM, read-out: Fraction of peptide remaining after 24 hours: hMSC +Inhibitor): 87% | remaining at 24 h, 50 µM [2, 9]: 98% | remaining after 24 h in the Cells condition for hMSCs ([3]; Figure 2B screen, 24 h, LC-MS): 70% | peptide remaining after 24 h, Cells condition, hMSCs ([3]; Figure 3C, LC-MS, N = 6): 78% | Fraction of peptide remaining after 24 hours: hUVEC Cells ([4]; Figure 3B heatmap, split-and-pool libraries KLVADX1X2ASAE in media on hUVECs, N = 2): 0.91 | degradation in Media condition ([5]; Figure 2B screen, hUVEC-conditioned media): less than 3% | Fraction of peptide remaining after 24 hours: hUVEC Media ([5]; Figure 3B heatmap, split-and-pool libraries KLVADX1X2ASAE in hUVEC-conditioned media without cells, ratio to βFβA6, N = 2): 0.98 | remaining at 24 h, 50 µM ([5]; hUVEC-conditioned media without cells (Media condition), Figure 3C, individually synthesized soluble peptide, 50 µM, hUVEC-conditioned media without cells, ratio to βFβA6, N = 6, read-out: Fraction of peptide remaining after 24 hours: hUVEC Media): 102% | remaining at 24 h [5]: 100%
SMILES: CC(=O)NCCC(=O)N[C@@H](CCCCN)C(=O)N[C@@H](CC(C)C)C(=O)N[C@H](C(=O)N[C@@H](C)C(=O)N[C@@H](CC(=O)O)C(=O)N[C@@H](CC(N)=O)C(=O)N[C@@H](Cc1ccc(O)cc1)C(=O)N[C@@H](C)C(=O)N[C@@H](CO)C(=O)N[C@@H](C)C(=O)N[C@@H](CCC(=O)O)C(=O)NCCC(N)=O)C(C)C [KLVAD-NY] (Ac-[βAla]KLVADNYASAE[βAla]-NH2)
